Measured values as given in ChEMBL document CHEMBL1127517 (J Med Chem, 1994).

Legend:
[1] = target: T1, Sodium-dependent dopamine transporter (Rattus norvegicus, UniProt P23977); assay: Inhibitory constant towards reuptake of [125I]-12 from dopamine transporter in rat striatal membranes; assay type: cell membranes, Membrane
[2] = target: T1, Sodium-dependent dopamine transporter; assay: Inhibitory constant towards reuptake of [125I]-13 from dopamine transporter in rat striatal membranes; assay type: cell membranes, Membrane
[3] = system: Rattus norvegicus; assay: Distribution of radio activity in tissues of unfasted male rats was measured as regional uptake at 120 min of time in ST/CB after intravenous administration; assay type: ADME, organism-based; settings: in vivo, 2 h
[4] = system: Rattus norvegicus; assay: Distribution of radio activity in tissues of unfasted male rats was measured as regional uptake at 120 min of time in cerebellum after intravenous administration; assay type: ADME, organism-based; settings: in vivo, 2 h
[5] = system: Rattus norvegicus; assay: Distribution of radio activity in tissues of unfasted male rats was measured as at 2 min of time in lung after intravenous administration; assay type: ADME, organism-based; settings: in vivo
[6] = system: Rattus norvegicus; assay: Distribution of radio activity in tissues of unfasted male rats was measured at 120 min of time in blood after intravenous administration; assay type: ADME, organism-based; settings: in vivo, 2 h
[7] = system: Rattus norvegicus; assay: Distribution of radio activity in tissues of unfasted male rats was measured at 120 min of time in brain after intravenous administration; assay type: ADME, organism-based; settings: in vivo, 2 h
[8] = system: Rattus norvegicus; assay: Distribution of radio activity in tissues of unfasted male rats was measured at 120 min of time in heart after intravenous administration; assay type: ADME, organism-based; settings: in vivo, 2 h
[9] = system: Rattus norvegicus; assay: Distribution of radio activity in tissues of unfasted male rats was measured at 120 min of time in kidney after intravenous administration; assay type: ADME, organism-based; settings: in vivo, 2 h
[10] = system: Rattus norvegicus; assay: Distribution of radio activity in tissues of unfasted male rats was measured at 120 min of time in liver after intravenous administration; assay type: ADME, organism-based; settings: in vivo, 2 h
[11] = system: Rattus norvegicus; assay: Distribution of radio activity in tissues of unfasted male rats was measured at 120 min of time in lung after intravenous administration; assay type: ADME, organism-based; settings: in vivo, 2 h
[12] = system: Rattus norvegicus; assay: Distribution of radio activity in tissues of unfasted male rats was measured at 120 min of time in muscle after intravenous administration; assay type: ADME, organism-based, Muscle tissue; settings: in vivo, 2 h
[13] = system: Rattus norvegicus; assay: Distribution of radio activity in tissues of unfasted male rats was measured at 120 min of time in skin after intravenous administration; assay type: ADME, organism-based; settings: in vivo, 2 h
[14] = system: Rattus norvegicus; assay: Distribution of radio activity in tissues of unfasted male rats was measured at 120 min of time in spleen after intravenous administration; assay type: ADME, organism-based; settings: in vivo, 2 h
[15] = system: Rattus norvegicus; assay: Distribution of radio activity in tissues of unfasted male rats was measured at 120 min of time in thyroid after intravenous administration; assay type: ADME, organism-based, Thyroid gland; settings: in vivo, 2 h
[16] = system: Rattus norvegicus; assay: Distribution of radio activity in tissues of unfasted male rats was measured at 2 min of time in blood after intravenous administration; assay type: ADME, organism-based; settings: in vivo
[17] = system: Rattus norvegicus; assay: Distribution of radio activity in tissues of unfasted male rats was measured at 2 min of time in brain after intravenous administration; assay type: ADME, organism-based; settings: in vivo
[18] = system: Rattus norvegicus; assay: Distribution of radio activity in tissues of unfasted male rats was measured at 2 min of time in heart after intravenous administration; assay type: ADME, organism-based; settings: in vivo
[19] = system: Rattus norvegicus; assay: Distribution of radio activity in tissues of unfasted male rats was measured at 2 min of time in kidney after intravenous administration; assay type: ADME, organism-based; settings: in vivo
[20] = system: Rattus norvegicus; assay: Distribution of radio activity in tissues of unfasted male rats was measured at 2 min of time in muscle after intravenous administration; assay type: ADME, organism-based, Muscle tissue; settings: in vivo
[21] = system: Rattus norvegicus; assay: Distribution of radio activity in tissues of unfasted male rats was measured at 2 min of time in skin after intravenous administration; assay type: ADME, organism-based; settings: in vivo
[22] = system: Rattus norvegicus; assay: Distribution of radio activity in tissues of unfasted male rats was measured as regional uptake at 60 min of time in cortex after intravenous administration; assay type: ADME, organism-based; settings: in vivo, 1 h
[23] = system: Rattus norvegicus; assay: Distribution of radio activity in tissues of unfasted male rats was measured as regional uptake at 60 min of time in hippocampus after intravenous administration; assay type: ADME, organism-based; settings: in vivo, 1 h
[24] = system: Rattus norvegicus; assay: Distribution of radio activity in tissues of unfasted male rats was measured as regional uptake at 60 min of time in striatum after intravenous administration; assay type: ADME, organism-based; settings: in vivo, 1 h
[25] = system: Rattus norvegicus; assay: Distribution of radio activity in tissues of unfasted male rats was measured at 30 min of time in lung after intravenous administration; assay type: ADME, organism-based; settings: in vivo, 0.5 h
[26] = system: Rattus norvegicus; assay: Distribution of radio activity in tissues of unfasted male rats was measured at 30 min of time in muscle after intravenous administration; assay type: ADME, organism-based, Muscle tissue; settings: in vivo, 0.5 h
[27] = system: Rattus norvegicus; assay: Distribution of radio activity in tissues of unfasted male rats was measured at 30 min of time in skin after intravenous administration; assay type: ADME, organism-based; settings: in vivo, 0.5 h
[28] = system: Rattus norvegicus; assay: Distribution of radio activity in tissues of unfasted male rats was measured at 30 min of time in kidney after intravenous administration; assay type: ADME, organism-based; settings: in vivo, 0.5 h
[29] = system: Rattus norvegicus; assay: Distribution of radio activity in tissues of unfasted male rats was measured at 30 min of time in liver after intravenous administration; assay type: ADME, organism-based; settings: in vivo, 0.5 h
[30] = system: Rattus norvegicus; assay: Distribution of radio activity in tissues of unfasted male rats was measured at 30 min of time in spleen after intravenous administration; assay type: ADME, organism-based; settings: in vivo, 0.5 h
[31] = system: Rattus norvegicus; assay: Distribution of radio activity in tissues of unfasted male rats was measured at 30 min of time in thyroid after intravenous administration; assay type: ADME, organism-based, Thyroid gland; settings: in vivo, 0.5 h

T1 sequence (P23977 whole entry): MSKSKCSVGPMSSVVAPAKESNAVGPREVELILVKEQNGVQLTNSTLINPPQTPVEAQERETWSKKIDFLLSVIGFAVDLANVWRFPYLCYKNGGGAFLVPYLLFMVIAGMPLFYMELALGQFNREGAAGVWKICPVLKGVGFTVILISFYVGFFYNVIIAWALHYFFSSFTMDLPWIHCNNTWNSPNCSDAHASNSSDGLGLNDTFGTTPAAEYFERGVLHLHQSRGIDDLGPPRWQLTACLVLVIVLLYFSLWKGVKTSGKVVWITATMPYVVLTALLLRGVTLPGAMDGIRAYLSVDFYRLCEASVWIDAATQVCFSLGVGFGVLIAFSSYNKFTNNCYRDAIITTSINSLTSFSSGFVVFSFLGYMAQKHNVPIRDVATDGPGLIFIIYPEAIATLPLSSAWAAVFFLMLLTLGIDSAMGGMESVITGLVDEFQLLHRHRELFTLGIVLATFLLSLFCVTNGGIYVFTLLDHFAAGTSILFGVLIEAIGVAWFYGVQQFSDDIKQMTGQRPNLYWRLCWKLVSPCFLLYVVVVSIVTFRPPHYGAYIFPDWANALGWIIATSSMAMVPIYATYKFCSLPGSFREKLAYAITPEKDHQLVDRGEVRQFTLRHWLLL

`COC(=O)C1C(c2ccc(Cl)cc2)CC2CCC1N2C/C=C/I` (stereo unspecified) showed a Ki [1] of 0.69 nM, a Ki [2] of 3.2 nM and a Dose/g [3] of 16.5%. The Dose/g [4] was 0.037%, the Injected dose/organ [5] was 1.19% and the Injected dose/organ [6] was 4.77%. It also gave an Injected dose/organ [7] of 0.13%, an Injected dose/organ [8] of 0.11% and an Injected dose/organ [9] of 0.46%. For the same compound, the Injected dose/organ [10] was 1.44%, the Injected dose/organ [11] was 0.31% and the Injected dose/organ [12] was 9.04%. It also gave an Injected dose/organ [13] of 20%, an Injected dose/organ [14] of 0.09% and an Injected dose/organ [15] of 1.06%. The Injected dose/organ [16] was 2.98%, the Injected dose/organ [17] was 1.62% and the Injected dose/organ [18] was 1.05%. For the same compound, the Injected dose/organ [19] was 3.11%, the Injected dose/organ [20] was 28.27% and the Injected dose/organ [21] was 5.14%. It also gave a Dose/g [22] of 0.08%, a Dose/g [23] of 0.095% and a Dose/g [24] of 1.23%. It also gave an Injected dose/organ [25] of 0.91%, an Injected dose/organ [26] of 18.54% and an Injected dose/organ [27] of 23.76%. The Injected dose/organ [28] was 0.86%, the Injected dose/organ [29] was 3.72% and the Injected dose/organ [30] was 0.23%. It also gave an Injected dose/organ [31] of 0.76%.
